According to patent US4175125A, “Method for treating methicillin resistant staphylococcus aureus” (Eli Lilly and Company, priority 1978, dated 1979):
Where a name gives a salt, the structure may show the parent alone. Read-outs that look alike come from different tables or passages of the source.

Tests used:
[1] = test system: Staphylococcus aureus cultures; experiment: Modified Bauer-Kirby Disc Susceptibility Test (Example 11); type: cell-based; set-up: zone of inhibition: dose or concentration left out as unconfirmed; conditions: for zone of inhibition: Staphylococcus aureus; for Change 37°-30°: 30 mg Disc
Protocol: This example exemplifies the antibiotic activity of 7-[2'-(3"-chloro-4"-fluorophenylthio)acetamido]cephalosporanic acid, a water soluble compound, described in Example 8, against various Staphylococcus aureus cultures, in a modified Bauer-Kirby Disc Susceptibility Test (Bauer, A. W., W. M. M. Kirby, J. C. Sherris, and M. Turck, 1966, Amer. J. Clin. Pathol. 45:493-496). In this test the cultures were incubated at both 37° C. or 30° C. […] 16, 1968, the heterogeneity of methicilllin-resistant S. aureus is manifested by incubation at 30° C.

[2] = test system: Streptococcus pyogenes, strain C203; experiment: Streptococcus pyogenes infection in mice, median effective dose (Example 12); type: in vivo
Protocol: The compound 7-[2"-(3"-chloro-4"-fluorophenyltio)acetamido]cephalosporanic acid, prepared as described in Example 8, was tested for antibiotic effectiveness against Streptococcus pyogenes, strain C203 infections in mice, and is compared with the effectiveness of cephaloridine in the same test. Experience has shown with other compounds, some of which are now commercial antibiotics, that a compound effective against Streptococcus pyrogenes, strain C203 in this test will be effective against Staphylococcus aureus strains in clinical use. This is intended as further evidence that the compounds of the method of this invention should be effective antibiotics in clinical situations.
In this test, a standard in vivo test method described by Wick, W. E., F. Streightoff, and D. H. Holmes. 1961, in J. Bacteriol., 81: 233-235 was used. The oral and subcutaneous median effective doses (ED50) necessary to cure 50 percent of the mice were calculated according to the method of Reed and Muench (Reed, L. J., and H. Meunch. 1938. Am. J. Hyg. 27: 493-497) The results were as follows: […]

[3] = test system: methicillin-resistant Staphylococcus aureus; experiment: Gradient plate test (MIC) against methicillin-resistant Staphylococcus aureus; type: cell-based; conditions: Staphylococcus aureus, read-out: minimum inhibitory concentration (MIC)
How it was run: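 Gradient plate MIC: antibiotic in a slanted bottom layer of Penassay agar, overlaid with plain agar, then streaked with diluted MRSA inoculum and incubated 24 h at 35°-37° C. Growth length as a fraction of streak converted to concentration; averaged over 2 streaks and 2–3 plates, tested without and with 20 percent blood serum.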

Compound: CC(=O)OCC1=C(C(=O)O)N2C(=O)C(NC(=O)CSc3ccc(F)c(Cl)c3)C2SC1 (stereo not drawn) [Example 8, 7-(3'-chloro-4-fluorophenylthioacetamido)cephalosporanic acid, sodium salt]
- zone of inhibition ([1]; culture 3055 (penicillin sensitive), 30°, read-out: disc susceptibility (zone) at 30°): > 35 mm
- zone of inhibition ([1]; culture 3055 (penicillin sensitive), 37°, read-out: disc susceptibility (zone) at 37°): > 35 mm
- zone of inhibition ([1]; culture 3074 (methicillin sensitive, penicillinase producing), 30°, read-out: disc susceptibility (zone) at 30°): 36 mm
- zone of inhibition ([1]; culture 3074 (methicillin sensitive, penicillinase producing), 37°, read-out: disc susceptibility (zone) at 37°): 36 mm
- zone of inhibition ([1]; culture 3125 (methicillin resistant), 30°, read-out: disc susceptibility (zone) at 30°): 36 mm
- zone of inhibition ([1]; culture 3125 (methicillin resistant), 37°, read-out: disc susceptibility (zone) at 37°): 33.8 mm
- zone of inhibition ([1]; culture 3130 (methicillin resistant), 30°, read-out: disc susceptibility (zone) at 30°): 31 mm
- zone of inhibition ([1]; culture 3130 (methicillin resistant), 37°, read-out: disc susceptibility (zone) at 37°): 33.2 mm
- zone of inhibition ([1]; culture 3131 (methicillin resistant), 30°, read-out: disc susceptibility (zone) at 30°): 29 mm
- zone of inhibition ([1]; culture 3131 (methicillin resistant), 37°, read-out: disc susceptibility (zone) at 37°): 26.6 mm
- zone of inhibition ([1]; culture 3132 (methicillin resistant), 30°, read-out: disc susceptibility (zone) at 30°): 28 mm
- zone of inhibition ([1]; culture 3132 (methicillin resistant), 37°, read-out: disc susceptibility (zone) at 37°): 29.4 mm
- zone of inhibition ([1]; culture 3133 (methicillin resistant), 30°, read-out: disc susceptibility (zone) at 30°): 24.8 mm
- zone of inhibition ([1]; culture 3133 (methicillin resistant), 37°, read-out: disc susceptibility (zone) at 37°): 27.6 mm
- zone of inhibition ([1]; culture 3134 (methicillin resistant), 30°, read-out: disc susceptibility (zone) at 30°): 27.8 mm
- zone of inhibition ([1]; culture 3134 (methicillin resistant), 37°, read-out: disc susceptibility (zone) at 37°): 28 mm
- zone of inhibition ([1]; culture 3135 (methicillin resistant), 30°, read-out: disc susceptibility (zone) at 30°): 26.2 mm
- zone of inhibition ([1]; culture 3135 (methicillin resistant), 37°, read-out: disc susceptibility (zone) at 37°): 28.2 mm
- zone of inhibition ([1]; culture 3136 (methicillin resistant), 30°, read-out: disc susceptibility (zone) at 30°): 31 mm
- zone of inhibition ([1]; culture 3136 (methicillin resistant), 37°, read-out: disc susceptibility (zone) at 37°): 35 mm
- zone of inhibition ([1]; culture 3137 (methicillin resistant), 30°, read-out: disc susceptibility (zone) at 30°): 22.1 mm
- zone of inhibition ([1]; culture 3137 (methicillin resistant), 37°, read-out: disc susceptibility (zone) at 37°): 24.4 mm
- zone of inhibition ([1]; culture 3138 (methicillin resistant), 30°, read-out: disc susceptibility (zone) at 30°): 25.2 mm
- zone of inhibition ([1]; culture 3138 (methicillin resistant), 37°, read-out: disc susceptibility (zone) at 37°): 25.6 mm
- zone of inhibition ([1]; culture 3139 (methicillin resistant), 30°, read-out: disc susceptibility (zone) at 30°): 31.6 mm
- zone of inhibition ([1]; culture 3139 (methicillin resistant), 37°, read-out: disc susceptibility (zone) at 37°): 34 mm
- zone of inhibition ([1]; culture 3140 (methicillin resistant), 30°, read-out: disc susceptibility (zone) at 30°): 26.4 mm
- zone of inhibition ([1]; culture 3140 (methicillin resistant), 37°, read-out: disc susceptibility (zone) at 37°): 28.4 mm
- zone of inhibition ([1]; culture H232 (methicillin sensitive, penicillinase producing), 30°, read-out: disc susceptibility (zone) at 30°): 34.3 mm
- zone of inhibition ([1]; culture H232 (methicillin sensitive, penicillinase producing), 37°, read-out: disc susceptibility (zone) at 37°): 33.4 mm
- Change 37°-30° ([1]; culture 3074): 0 mm
- Change 37°-30° ([1]; culture 3125): +2.2 mm
- Change 37°-30° ([1]; culture 3130): -2.2 mm
- Change 37°-30° ([1]; culture 3131): +2.4 mm
- Change 37°-30° ([1]; culture 3132): -1.4 mm
- Change 37°-30° ([1]; culture 3133): -2.8 mm
- Change 37°-30° ([1]; culture 3134): -0.2 mm
- Change 37°-30° ([1]; culture 3135): -2.0 mm
- Change 37°-30° ([1]; culture 3136): -4.0 mm
- Change 37°-30° ([1]; culture 3137): -2.3 mm
- Change 37°-30° ([1]; culture 3138): -0.4 mm
- Change 37°-30° ([1]; culture 3139): -2.4 mm
- Change 37°-30° ([1]; culture 3140): -2.0 mm
- Change 37°-30° ([1]; culture H232): +0.9 mm
- effectiveness vs cephalothin in disc susceptibility test ([1]; incubation at 37° C. or 30° C.): more effective than cephalothin
- ED50 ([2]; C203, oral, infecting challenge 27.9 (XLD50), read-out: ED50): 7 mg/kg
- ED50 ([2]; C203, sc, subcut, infecting challenge 27.9 (XLD50), read-out: ED50): < 0.21 mg/kg
- MIC ([3]; in the absence of blood serum): 9.3 µg/mL
- MIC ([3]; in the presence of 20 percent blood serum): 12.2 µg/mL

Compound: O=C(Cc1cccs1)N[C@@H]1C(=O)N2C(C(=O)[O-])=C(C[n+]3ccccc3)CS[C@H]12 [Cephaloridine, cephaloridine, reference compound]
- ED50 ([2]; C203, po): 0.323 mg/kg
- ED50 ([2]; C203, sc): 0.1 mg/kg
